These results are taken from patent US20190388421A1, “NOVEL COMPOUNDS AND PHARMACEUTICAL COMPOSITIONS THEREOF FOR THE TREATMENT OF FIBROSIS” (Galapagos NV, priority 2016, published 2019).

Experiment [1] deals with T1, human GPCR sphingosine 1-phosphate receptor 2 (S1PR2) (Homo sapiens, UniProt O95136).
T1 construct: host or cells: CHO
Kind of experiment: S1P2 antagonist assay (Ca2+ flux, S1P at EC80). Particulars: CHO-S1PR2 cells, highest concentration 20 μM. Format: cell-based. In a few lines:
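CHO cells stably overexpressing human S1PR2, serum-starved 1 h and loaded with Fluo8 dye, were read for 3 min after compound addition, then stimulated with S1P at EC80 after 15 min at 37 °C. Top concentration 20 μM in a 10-point 1/3 series; Ca2+ fluorescence ratio normalized to vehicle and S1P EC80, giving EC50.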
A general note: A change in cytosolic calcium serves as a functional read-out for many receptors and channels.

Experiment [2] deals with HFL-1 cells. As to the kind of experiment: IL8 assay in the presence of Human Serum Albumin. Format: cell-based. The following applies: HFL1, S1P (5 μM) induced IL-8, HFL-1 cells, with 2% HSA, read-out: HSA IL8 EC50. Here is the method: (§1) S1P is able to induce cytokines such as IL-8 in a process that is S1PR2 dependent (O'Sullivan et al, 2014; Bruennert et al, 2015). This assay is designed to test inhibitory activity of compounds on S1P induced IL-8 on HFL-1 cells, a human fetal lung fibroblast cell line.
To evaluate the influence of plasma protein binding of Sip as well as compound, the S1P induced IL-8 levels were evaluated in presence of 2% Human Serum Albumin (HSA, equivalent to 40% human serum). By adding 2% HSA, which affects both the activity of the compounds as well as the S1P potency, the physiological condition are reproduced and the shift in potency expected under in vivo serum conditions can be measured.
(§2) Human Fetal Lung cells (HFL-1) are seeded in 96 well plates in growth medium (F12K+10% heat inactivated FBS+1% Pen/strep). After overnight incubation at 37° C., 5% CO2 cells are refreshed with starvation medium with HSA (F12K+1% FBS+1% Pen/strep+1.95% HSA). On day three, compounds are added (10 point serial dilution, 30 μM highest concentration, 1/3 dilution, 0.3% DMSO final) and plates are incubated for 1 h at 37° C., 5% CO2. Subsequently S1P at 5 μM final concentration is added and plates are incubated for 16 to 24 h at 37° C., 5% CO2 after which the supernatant was collected. IL-8 levels in the supernatant are determined with the IL-8 ELISA of R&D systems.

The test system of experiment [3] is HFL-1 cells. Kind of experiment: IL8 assay (S1P induced IL-8 production). The experiment is classed as cell-based. Particulars: Homo sapiens, HFL1; S1P (1 μM) induced IL-8, HFL-1 cells, without HSA. Here is the method:
as §1
as §2, with “medium without” for “medium with”, “FBS+1% Pen/strep).” for “FBS+1% Pen/strep+1.95% HSA).”, “concentration, ⅓” for “concentration, 1/3”, “for one hour” for “for 1 h”, “at 1” for “at 5”, “24 hours” for “24 h”

Experiment [4] concerns the target T2, S1PR2 (Homo sapiens, UniProt O95136).
T2 construct: expressed in transfected cells
Kind of experiment: GTP-γS binding assay ([35S]GTPγS, S1P at EC80, S1PR2 membranes). The experiment is classed as biochemical. Particulars: membranes from stable cell line over expressing S1PR2, read-out: S1PR2 EC. The method in brief:
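Compounds tested against S1P at its EC80 on membranes (2.5 μg/well) from a stable S1PR2-overexpressing line, pre-incubated with 1 μM GDP 15 min at 4 °C. Buffer: 20 mM Tris pH 7.5, 10 mM MgCl2, 100 mM NaCl, 0.1% fatty-acid-free BSA, 50 ug/ml saponin. Incubated 4 h at room temperature; [35S]GTPγS binding read by WGA SPA beads.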

T2 sequence (O95136 whole entry): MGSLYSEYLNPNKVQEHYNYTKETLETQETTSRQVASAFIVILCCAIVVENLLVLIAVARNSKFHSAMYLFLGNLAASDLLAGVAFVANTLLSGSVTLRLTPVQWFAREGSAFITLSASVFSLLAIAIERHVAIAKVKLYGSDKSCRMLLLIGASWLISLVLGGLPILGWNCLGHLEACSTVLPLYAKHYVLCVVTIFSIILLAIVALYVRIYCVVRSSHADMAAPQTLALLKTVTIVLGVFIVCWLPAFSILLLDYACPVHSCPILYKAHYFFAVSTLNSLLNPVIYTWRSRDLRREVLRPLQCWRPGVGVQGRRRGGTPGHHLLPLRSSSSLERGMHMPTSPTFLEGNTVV
T1 sequence (O95136 whole entry): as above

Consider `CCOc1cc(NC(=O)NCc2cc(C)c(-c3cn(CC(C)O)nc3C(F)(F)F)nn2)cc(C(F)(F)F)n1` (stereo not drawn) [Compound 56, 1-[2-ethoxy-6-(trifluoromethyl)-4-pyridyl]-3-[[6-[1-(2-hydroxypropyl)-3-(trifluoromethyl)pyrazol-4-yl]5-methyl-pyridazin-3-yl]methyl]urea], for which the values for the EC50 in experiment [1], in experiment [3] and in experiment [4] were 11.2 nM, 4.6 nM and 129 nM, respectively. In addition, in experiment [2], the IC50 is 98.5 nM.

Regarding `Cc1cc(CNC(=O)Nc2cc(OCC3CC(F)(F)C3)nc(C(F)(F)F)c2)nnc1-c1cn(C)nc1C(F)(F)F` [Compound 42, 1-[2-[(3,3-difluorocyclo-butyl)methoxy]-6-(trifluoromethyl)-4-pyridyl]-3-[[5-methyl-6-[1-methyl-3-(trifluoromethyl)pyrazol-4-yl]pyridazin-3-yl]methyl]urea], the EC50 stood at 292 nM in experiment [1], 50.9 nM in experiment [3] and 604 nM in experiment [4]. In addition, the IC50 in experiment [2] was 1240 nM.

Turning to `Cc1cc(CNC(=O)Nc2cc(OCC(=O)N(C)C)nc(C(F)(F)F)c2)nnc1-c1cn(C)nc1C(F)(F)F` [Compound 67, N,N-dimethyl-2-[[4-[[5-methyl-6-[1-methyl-3-(trifluoromethyl)pyrazol-4-yl]pyridazin-3-yl]methyl-carbamoyla-mino]-6-(trifluoromethyl)-2-pyridyl]oxy]acetamide], in experiment [2], the IC50 came to 9950 nM. Besides, the EC50 in experiment [3] came out at 2180 nM; in experiment [4], 28700 nM.

In the case of `Cc1cc(CNC(=O)Nc2cc(Cl)nc(OCC(F)F)c2)nnc1N1CCOC(CN(C)C)C1` (stereo not drawn) [Compound 97, 1-[2-chloro-6-(2,2-difluoroethoxy)-4-pyridyl]-3-[[6-[2-[(dimethylamino)methyl]morpholin-4-yl]-5-methyl-pyridazin-3-yl]methyl]urea], the EC50 in experiment [1] amounted to 81 nM; in experiment [3], 62 nM; in experiment [4], 274 nM. Further, the IC50 in experiment [2] turned out to be 1800 nM.

Consider `CCOc1cc(NC(=O)NCc2cc(C)c(N3CC(F)(F)C3)nn2)cc(Cl)n1` [Compound 83, 1-(2-Chloro-6-ethoxy-pyridin-4-yl)-3-[6-(3,3-difluoro-azetidin-1-yl)-5-methyl-pyridazin-3-ylmethyl]-urea], for which the EC50 in experiment [1] is 11 nM; in experiment [3] it was 66 nM; in experiment [4] it was 160 nM. The IC50 in experiment [2] was 30000 nM.

Regarding `Cc1cc(CNC(=O)Nc2cc(Cl)nc(OCCF)c2)nnc1-c1cn(C)nc1C(F)(F)F` [Compound 16, 1-[2-chloro-6-(2-fluoroethoxy)-4-pyridyl]-3-[[5-methyl-6-[1-methyl-3-(trifluoromethyl)pyrazol-4-yl]pyridazin-3-yl]methyl]urea], the EC50 in experiment [1] came to 10.8 nM; in experiment [3], 4.6 nM; in experiment [4], 62.9 nM. In addition, the IC50 in experiment [2] is 74.9 nM.

On to `CCOc1cc(NC(=O)NCc2nnc(-c3cn(C)nc3C(F)(F)F)c(C)c2C)cc(C(F)(F)F)n1` [Compound 66, 1-[[4,5-dimethyl-6-[1-methyl-3-(trifluoromethyl)pyrazol-4-yl]pyridazin-3-yl]methyl]-3-[2-ethoxy-6-(trifluoromethyl)-4-pyridyl]urea], for which the values for the EC50 in experiment [1] and in experiment [3] were 4250 nM and 996 nM, respectively. In experiment [2], the IC50 was found to be 29900 nM.

On to `Cc1cc(CNC(=O)Nc2cc(Cl)nc(Cl)c2)nnc1-c1cn(C)nc1C(F)(F)F` [Compound 21, 1-(2,6-dichloro-4-pyridyl)-3-[[5-methyl-6-[1-methyl-3-(trifluoromethyl)pyrazol-4-yl]pyridazin-3-yl]methyl]urea], for which the values for the EC50 in experiment [1], in experiment [3] and in experiment [4] were 17.3 nM, 11.3 nM and 136 nM, respectively. For the same molecule, in experiment [2], the IC50 came to 393 nM.

With `CCOc1nc(C)cc(NC(=O)NCc2cc(C)c(-c3cn(C)nc3C(F)(F)F)nn2)c1C#N` [Compound 77, 1-(3-cyano-2-ethoxy-6-methyl-4-pyridyl)-3-[[5-methyl-6-[1-methyl-3-(trifluoromethyl)pyrazol-4-yl]pyridazin-3-yl]methyl]urea], in experiment [2], the IC50 stood at 29900 nM. The EC50 in experiment [3] amounted to 2740 nM; in experiment [4] it was 20000 nM.
